How the values were obtained:
[1] = test system: HCT-116 colon cancer cell lines; test: Invasion Assay using Matrigel, HCT-116; assay type: cell-based, human; settings: HCT-116, Matrigel invasion, 24 hours treatment
Experimental: To evaluate the metastasis inhibitory efficacy of the compounds of the present invention on HCT-116 colon cancer cell lines, an Invasion Assay using Matrigel was performed to assess the cells' invasion ability.
First, Matrigel was thawed on ice in RPMI-1640 medium without FBS, then diluted with DMEM at a ratio of 1:20.
The diluted Matrigel mixture was applied to the upper chamber at 100 μl per well, and 750 μl of RPMI-1640 without FBS was added to the lower chamber.
The plates were then incubated at 37° C. for 1 hour to allow the Matrigel to solidify.
After coating, the Matrigel mixture in the upper chamber was removed using a pipette, and the chamber was washed with RPMI without FBS.
Human-derived colorectal cancer cell line HCT-116, obtained from the Korean Cell Bank, was cultured in RPMI-1640 medium containing 10% FBS.
Following stabilization, the cells were harvested using Trypsin-EDTA treatment, centrifuged at 1,200 rpm for 3 minutes, the supernatant was removed, and the cells were resuspended in the same medium, the medium in the lower chamber was replaced with 750 μl of RPMI-1640 supplemented with 10% FBS, and the cells were seeded into the upper chamber at a density of 5×10^4 cells/well.
The cells were cultured for 24 hours after attachment, and then the compounds according to the present invention (G078, G085, G086, G088, G089, PBK-2024-010, PBK-2025-010, PBK-2025-013, PBK-2025-016) and the control substance DMSO were diluted and added to the upper chamber after removing the medium.
Additionally, the medium in the lower chamber was replaced with fresh RPMI-1640 containing FBS, and the culture was continued.
After an additional 24 hours, the medium was removed, and 1 ml of methanol was added for 10 minutes to fix the cells.
Subsequently, 1 ml of Hematoxylin was added and reacted for 5 minutes, followed by 1 ml of Eosin, which was reacted for 30 seconds. The sample was then washed with distilled water (DW).
After staining was complete, any remaining cells in the upper chamber were removed. Finally, the infiltrated cells were observed under a microscope, photographed, and the degree of infiltration was analyzed.

[2] = test system: T cells isolated from mouse spleen; test: T cell proliferation inhibition, CFSE flow cytometry, CD3/CD28 activation; assay type: cell-based; settings: CD3/CD28 activated, 3 days
Experimental: To verify the T cell proliferation inhibitory effect of the compounds according to the present invention, the following experiment was performed based on flow cytometry analysis using carboxyfluorescein diacetate succinimidyl ester (CFSE), a fluorescent dye that binds to intracellular molecules via covalent bonds.
Spleens were extracted from 7-week-old C57BL/6 mice, ground, and then separated into single cells using a strainer (40 μm pore size, SPL). Red blood cells were removed using ACK (Ammonium-Chloride-Potassium) lysis buffer to isolate white blood cells.
Finally, using a MACS Magnetic Stand and LS column, T cells were isolated from the spleen.
The T cells isolated from the spleen were resuspended in 1 mL of free medium (RPMI-1640+200 U/mL penicillin+200 μg/mL streptomycin), and 0.3 μL of CFSE (10 mM) was added. The mixture was incubated at 37° C. for 5 minutes.
Free medium (10 mL) was added to stop the reaction, and the cells were centrifuged to obtain the cell pellet.
RPMI 1640 medium containing 10% FBS, 100 U/mL penicillin, 100 μg/mL streptomycin, and resuspended the cells. The cells were then seeded into a 96-well plate at a density of 2×10^5 cells per well and activated with CD3 and CD28 antibodies (0.5 μg/mL each) to activate T cells.
The compound diluted in DMSO was added at concentrations of 10 nM, 100 nM, 1 μM, 10 μM, 30 μM, and 50 μM, with three wells per concentration, and cultured at 37° C. and 5% CO2 for three days. The cells were then analyzed using a FACS Canto instrument.
The proliferation inhibition rate (%) was calculated using the following formula: […]

[3] = test system: MRL/lpr mice; test: Lupus animal model (MRL/lpr mice); assay type: in vivo, mouse; settings: 41-week-old female MRL/lpr mice; GO15F (30 mg/kg), GO48 (1 mg/kg), GO88 (0.5 mg/kg) intraperitoneally once daily
From the text: The MRL/MpJ-Faslpr/J (Hereinafter Referred to as “MRL/lpr”) used in this experiment is one of the representative animal models for systemic lupus erythematosus (SLE), known to produce various autoantibodies, including antinuclear antibodies, due to the lpr (lymphoproliferation) gene.
In this invention, the period up to 9 weeks of age was considered the pre-disease stage, and the period after 23 weeks of age was considered the post-disease stage, and efficacy verification experiments using this model were conducted.
MRL/lpr mice were imported from The Jackson Laboratory and acclimatized for one week in an SPF (Specific Pathogen Free) facility maintained at a temperature of 21-24° C., humidity of 40-60%, and a 12-hour light-dark cycle (lights on at 7:00 AM, lights off at 7:00 PM). […]
The serum separated at the time of necropsy of the lupus animal model was analyzed using the ‘IgG (Total) Mouse Uncoated ELISA Kit (Invitrogen, Cat. #88-50400)’ to measure the concentration of total IgG.
Capture antibody (anti-mouse IgG) diluted 1/250 in coating buffer was added to each well of a 96-well plate (Nunc™ MaxiSorp™ ELISA Plates, Uncoated, BioLegend, Cat. #423501) at 100 μl per well, and the plate was incubated at 4° C. for 16 hours.
To investigate the effect of GO15F administration on changes in the ratio of immune cells in the spleen of a lupus animal model, the spleens of mice administered each compound were excised, cells were extracted, and the cells were suspended in MACS buffer (autoMACS Washing Solution, Miltenyi Biotec., Cat. #130-092-987).
For flow cytometry analysis, FACS tubes (5 mL round tubes, Falcon, Cat. #352052) were used. To prevent non-specific binding of antibodies, 1 μg/mL of anti-mouse CD16/CD32 (InVivoPlus anti-mouse CD16/CD32, BioXCell, Cat. #BP0307) for 30 minutes to prevent non-specific binding of the antibody, then centrifuge at 1,500 rpm for 5 minutes and resuspend in 100 μL of MACS buffer.
For B cells, each FACS tube was stained with 1 μg/mL of FITC-conjugated anti-B220 antibody (eBioscience™, Cat. #11-0452-81) at 4° C. for 30 minutes, then washed with 2 mL of MACS buffer.
For T cells, each FACS tube was stained with 1 μg/mL PerCP-Cy5.5-conjugated anti-CD3 (Biolegend, Cat. #100218) at 4° C. for 30 minutes.
For macrophages, each FACS tube was stained with 1 μg/mL of PE-conjugated anti-CD11b antibody (Biolegend, Cat. #101207) and PerCP-Cy5.5-conjugated anti-F4/80 (Biolegend, Cat. #123128) and incubated at 4° C. for 30 minutes. The tubes were then washed with 2 mL of MACS buffer.
To investigate the effects of compound GO15F according to the present invention on systemic immune responses in a lupus animal model, gene expression analysis of cytokines in kidney tissue was performed as described in (1).
Each kidney tissue was used to isolate total RNA using TRIzol™ (Invitrozen, Cat. #15596018). RNA from each mouse was quantified at 1 μg using a micro-quantitative spectrophotometer (ThermoFisher Scientific, ND2000) and cDNA was synthesized.
The synthesized cDNA from each mouse was quantified to a concentration of 50 ng using a micro-quantitative spectrophotometer, and qPCR was performed for the cytokines ‘IL-2, IL-6, IL-10, IL-17, TNF-α, IFN-γ’ using a SYBR green probe (CFX96, BIO-RAD).
To investigate the effects of drug administration on renal tissue in MRL/lpr mice, the tissue was fixed in 10% neutral buffered formalin at room temperature, followed by stepwise ethanol penetration for dehydration. The tissue was then embedded in xylene and paraffin.
The blocked tissues were sectioned into 4 μm thick slices using a microtome, followed by deparaffinization, hydration, and staining.
Hematoxylin & Eosin staining, PAS staining, and Masson trichrome staining were performed for pathological evaluation of the tissues. […]

[4] = test system: phospho-PDK1 in SU-DHL-8 cells; test: PDK1 phosphorylation (pPDK1) by flow cytometry in SU-DHL-8 cells; assay type: cell-based, human; settings: SU-DHL-8, 24 hours, pPDK1-PE flow cytometry, vs control group
Experimental: SU-DHL-8 cells were cultured in RPMI-1640 medium (containing 10% FBS, 100 U/mL penicillin, and 100 μg/mL streptomycin), and the cell concentration was adjusted to 1×10^6 cells/mL and seeded into a 12-well plate. After stabilizing the cells, the compound of the present invention was added, and the cells were cultured for 24 hours.
After drug treatment, the cells were harvested, and the Fc receptor blocking process was performed. The cells were then fixed and permeabilized using the Intracellular Staining Kit (Cat. No. BD554715) from BD Biosciences. Subsequently, the intracellular pPDK1 was stained using the pPDK1-PE fluorescently labeled antibody (BD Biosciences).
Referring to the figure, the vertical axis represents the phosphorylation level of PDK1 (phospho-PDK1 expression level), and the horizontal axis denotes the concentration-dependent treatment conditions of each compound.

[5] = test system: psoriasis-induced BALB/c mice; test: Psoriasis animal model (Aldara cream, Imiquimod); assay type: in vivo, mouse
Experimental: To verify the therapeutic effect of the compound according to the present invention on psoriasis, a psoriasis animal model was established as follows, and the compound according to the present invention was administered to evaluate the alleviation of skin lesions and changes in immune cell patterns.
For the establishment of the psoriasis animal model, BALB/c mice (7 weeks old, female, 20 g) were purchased from HanabioTech Co., Ltd. and acclimatized to the rearing environment for one week.
Subsequently, the hair on the mouse back was shaved using a hair removal device for the first time, and then completely shaved using a depilatory cream (Nicrin Cream (80% thioglycolic acid, Il Dong Pharmaceutical)) for the second time. The mice were then kept for 24 hours to confirm the absence of skin damage.
To verify the psoriasis prevention and therapeutic effects of the compounds according to the present invention, the following experimental groups were established:
[Normal control group (Normal, Not Treatment), psoriasis-induced control group (Psoriasis, Not Treatment), psoriasis-induced vehicle control group (Psoriasis, Vehicle), experimental group (GO85, GO86, GO88, GO89, PBK-2024-010, PBK-2024-026, PBK-2025-002, PBK-2025-004, PBK-2025-016, PBK-2025-017, PBK-2025-023)]. […]
Body weights of mice in each group were measured on days 1, 4, and 8 after the start of injection and psoriasis induction. […]
To evaluate the therapeutic effect in a psoriasis-induced mouse model, the PASI (Psoriasis Area and Severity Index) score was measured.
The PASI score is based on three criteria: erythema, scaling, and skin thickness, each scored from 0 (none) to 4 (severe). […]
Observations were conducted daily at the same time, and the same observer visually assessed each criterion and recorded the scores, with the results presented in FIG. 13. […]
All samples were measured in duplicate, and the absorbance was measured at 450 nm using a microplate reader.

| Molecule | number of infiltrated cells [1] | Proliferation inhibition rate (%) ([2]; compound 10 nM) | Proliferation inhibition rate (%) ([2]; compound 100 nM) | Proliferation inhibition rate (%) ([2]; compound 1 μM) | Proliferation inhibition rate (%) ([2]; compound 10 μM) | Proliferation inhibition rate (%) ([2]; compound 30 μM) | Proliferation inhibition rate (%) ([2]; compound 50 μM) | hair growth on the facial region [3] | PDK1 phosphorylation (phospho-PDK1 expression level) [4] | efficacy in improving dermatological symptoms [5] |
| --- | --- | --- | --- | --- | --- | --- | --- | --- | --- | --- |
| 12-(4-hydroxypiperazin-1-yl)dodecyl-N-(6-aminopurazin-2-yl)carboxamide [Compound 10] | reduction in the number of infiltrated cells | 100.00 | 100.00 | 100.00 | 100.00 | 100.00 | 100.00 |  |  |  |
| Nc1ncccc1C(=O)NCCCCCCCCCCCCN1CCOCC1 [Compound 2, 2-Amino-N-(12-morpholin-4-yl-dodecyl)-nicotinamide] |  |  |  |  |  |  |  | hair growth was confirmed | stronger PDK1 inhibition |  |
| Nc1nc(NC(=O)CCCCCCCCCCCCN2CCN(CCO)CC2)nc2nc[nH]c12 [Compound 15, 12-[4-(2-hydroxyethyl)piperazin-1-yl]dodecyl-N-(6-aminopurine-2-yl)carboxamide] | reduction in the number of infiltrated cells |  |  |  |  |  |  |  |  | excellent efficacy in improving dermatological symptoms |
